Source: ChEMBL document CHEMBL5154822, “Novel inhibitors of AChE and Aβ aggregation with neuroprotective properties as lead compounds for the treatment of Alzheimer's disease” (Eur J Med Chem, 2022)

Assays:
Acetylcholinesterase [1] = biological target: T1, Acetylcholinesterase (Mus musculus, UniProt P21836); assay: Inhibition of AChE in mouse cerebral cortex using acetylthiocholine iodide as substrate preincubated for 10 mins followed by substrate addition and measured for 180 secs by Ellman's spectrophotometric method; assay type: tissue-based
T1 sequence (P21836 whole entry): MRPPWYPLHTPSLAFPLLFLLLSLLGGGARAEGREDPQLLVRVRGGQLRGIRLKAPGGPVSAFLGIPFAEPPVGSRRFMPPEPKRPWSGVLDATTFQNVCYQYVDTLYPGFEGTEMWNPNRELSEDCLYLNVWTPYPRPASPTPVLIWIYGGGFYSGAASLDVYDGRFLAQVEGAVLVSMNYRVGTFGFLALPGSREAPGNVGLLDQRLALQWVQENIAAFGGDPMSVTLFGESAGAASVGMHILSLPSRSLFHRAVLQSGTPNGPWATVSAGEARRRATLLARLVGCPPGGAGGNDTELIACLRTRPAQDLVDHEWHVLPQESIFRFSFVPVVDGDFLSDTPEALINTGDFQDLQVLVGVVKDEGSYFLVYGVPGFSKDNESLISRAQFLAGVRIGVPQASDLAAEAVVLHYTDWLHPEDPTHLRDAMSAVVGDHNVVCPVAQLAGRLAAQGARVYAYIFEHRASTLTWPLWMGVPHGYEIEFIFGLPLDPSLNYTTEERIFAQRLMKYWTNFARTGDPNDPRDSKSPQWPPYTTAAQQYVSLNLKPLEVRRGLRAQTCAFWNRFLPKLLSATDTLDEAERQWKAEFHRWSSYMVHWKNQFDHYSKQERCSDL

[2] = biological target: T2, Acetylcholinesterase (Mus musculus) (UniProt P21836); assay: Inhibition of AChE in mouse cerebral cortex using acetylthiocholine iodide as substrate at 40 uM preincubated for 10 mins followed by substrate addition and measured for 180 secs by Ellman's spectrophotometric method; assay type: tissue-based; conditions: time 780.0 sec
T2 sequence (whole entry): T1 sequence (P21836 whole entry)

Acetylcholinesterase [3] = biological target: T1, Acetylcholinesterase; assay: Mixed-type inhibition of AChE in mouse cerebral cortex using acetylthiocholine iodide as substrate by double reciprocal Lineweaver-Burk plot analysis; assay type: tissue-based
[4] = Cytotoxicity against human SH-SY5Y cells assessed as maximum non-cytotoxic concentration by CellTiter-Glo luminescent assay; assay type: toxicity, cell-based; conditions: read-out: MNCC
[5] = Drug concentration in ICR mouse plasma at 1 mg/kg, ig measured after 0.25 hrs by LC/MS-MS analysis; assay type: ADME, organism-based; conditions: po
[6] = Drug concentration in ICR mouse plasma at 1 mg/kg, ig measured after 0.5 hrs by LC/MS-MS analysis; assay type: ADME, organism-based; conditions: po
[7] = Drug concentration in ICR mouse plasma at 1 mg/kg, ig measured after 1 hr by LC/MS-MS analysis; assay type: ADME, organism-based; conditions: po
[8] = Drug concentration in ICR mouse plasma at 1 mg/kg, ig measured after 2 hrs by LC/MS-MS analysis; assay type: ADME, organism-based; conditions: po
[9] = Drug concentration in ICR mouse plasma at 1 mg/kg, ig measured after 4 hrs by LC/MS-MS analysis; assay type: ADME, organism-based; conditions: po
[10] = Drug concentration in ICR mouse brain at 1 mg/kg, ig measured after 0.25 hrs by LC/MS-MS analysis; assay type: ADME, organism-based; conditions: po, read-out: Ct
[11] = Drug concentration in ICR mouse brain at 1 mg/kg, ig measured after 0.5 hrs by LC/MS-MS analysis; assay type: ADME, organism-based; conditions: po, read-out: Ct
[12] = Drug concentration in ICR mouse brain at 1 mg/kg, ig measured after 1 hr by LC/MS-MS analysis; assay type: ADME, organism-based; conditions: po, read-out: Ct
[13] = Drug concentration in ICR mouse brain at 1 mg/kg, ig measured after 2 hrs by LC/MS-MS analysis; assay type: ADME, organism-based; conditions: po, read-out: Ct
[14] = Drug concentration in ICR mouse brain at 1 mg/kg, ig measured after 4 hrs by LC/MS-MS analysis; assay type: ADME, organism-based; conditions: po, read-out: Ct
[15] = Ratio of drug concentration in brain to plasma in ICR mouse at 1 mg/kg, ig measured after 0.25 hrs by LC/MS-MS analysis; assay type: ADME, organism-based; conditions: po, read-out: BPR
[16] = Ratio of drug concentration in brain to plasma in ICR mouse at 1 mg/kg, ig measured after 0.5 hrs by LC/MS-MS analysis; assay type: ADME, organism-based; conditions: po, read-out: BPR
[17] = Ratio of drug concentration in brain to plasma in ICR mouse at 1 mg/kg, ig measured after 1 hr by LC/MS-MS analysis; assay type: ADME, organism-based; conditions: po, read-out: BPR
[18] = Ratio of drug concentration in brain to plasma in ICR mouse at 1 mg/kg, ig measured after 2 hrs by LC/MS-MS analysis; assay type: ADME, organism-based; conditions: po, read-out: BPR
[19] = Ratio of drug concentration in brain to plasma in ICR mouse at 1 mg/kg, ig measured after 4 hrs by LC/MS-MS analysis; assay type: ADME, organism-based; conditions: po, read-out: BPR

Q: With `COc1cc2c(cc1OC)S(=O)(=O)C(CC1CCN(Cc3ccc(F)cc3F)CC1)C2` (stereo not drawn) as the compound, how does the IC50 (Acetylcholinesterase [1]) read?
A: 14.7 nM

Q: Which IC50 (Acetylcholinesterase [1]) does the source give for `COc1cc2c(cc1OC)S(=O)(=O)C(CC1(F)CCN(Cc3ccccc3C)CC1)C2` (stereo not drawn) here?
A: 12.1 nM

Q: Which IC50 (Acetylcholinesterase [1]) does the source give for `COc1cc2c(cc1OC)S(=O)(=O)C(CC1(F)CCN(Cc3cccc(F)c3)CC1)C2` (stereo not drawn) here?
A: 5.1 nM

Q: With `COc1cc2c(cc1OC)S(=O)(=O)C(CC1CCN(Cc3ccc(F)c(Cl)c3)CC1)C2` (stereo not drawn) as the compound, how does the IC50 (Acetylcholinesterase [1]) read?
A: 11.5 nM

Q: With `COc1cc2c(cc1OC)S(=O)(=O)C(CC1CCN(Cc3ccccc3)CC1)C2` (stereo not drawn) as the compound, how does the IC50 (Acetylcholinesterase [1]) read?
A: 4.4 nM

Q: With `COc1cc2c(cc1OC)S(=O)(=O)C(CC1(F)CCN(Cc3ccccc3Cl)CC1)C2` (stereo not drawn) as the compound, how does the IC50 (Acetylcholinesterase [1]) read?
A: 5.5 nM

Q: For `COc1cc2c(cc1OC)S(=O)(=O)C(CC1(F)CCN(Cc3cccc(Cl)c3)CC1)C2` (stereo not drawn), which IC50 (Acetylcholinesterase [1]) is on record?
A: 5 nM

Q: Which IC50 (Acetylcholinesterase [1]) does the source give for `COc1cc2c(cc1OC)S(=O)(=O)C(CC1(F)CCN(Cc3ccc(F)cc3F)CC1)C2` (stereo not drawn) here?
A: 7.1 nM

Q: For `COc1cc2c(cc1OC)S(=O)(=O)C(CC1CCN(Cc3ccccc3)CC1)=C2`, which IC50 (Acetylcholinesterase [1]) is on record?
A: 317 nM

Q: With `COc1cc2c(cc1OC)S(=O)(=O)/C(=C/C1CCN(Cc3ccccc3)CC1)CCC2` as the compound, how does the inhibition [2] read?
A: 32.8%

Q: With `COc1cc2c(cc1OC)S(=O)(=O)/C(=C/C1CCN(Cc3ccccc3)CC1)C2` as the compound, how does the IC50 (Acetylcholinesterase [1]) read?
A: 4.7 nM

Q: For `COc1cc2c(cc1OC)S(=O)(=O)C(F)(CC1CCN(Cc3cccc(F)c3)CC1)C2` (stereo not drawn), which IC50 (Acetylcholinesterase [1]) is on record?
A: 2.4 nM

Q: And the Ki (Acetylcholinesterase [3])?
A: 0.4 nM

Q: And the MNTC [4]?
A: 10 µM

Q: And the concentration at 0.25 h [5]?
A: 2.89 ng/mL

Q: And the concentration at 0.5 h [6]?
A: 3.42 ng/mL

Q: What about the concentration at 1 h [7] of the same compound?
A: 3.48 ng/mL

Q: And the concentration at 2 h [8]?
A: 2.59 ng/mL

Q: What about the concentration at 4 h [9] of the same compound?
A: 2.7 ng/mL

Q: What about the concentration at 0.25 h [10] of the same compound?
A: 10.6 ng/mL

Q: And the concentration at 0.5 h [11]?
A: 18.1 ng/mL

Q: And the concentration at 1 h [12]?
A: 21.9 ng/mL

Q: And the concentration at 2 h [13]?
A: 21.8 ng/mL

Q: And the concentration at 4 h [14]?
A: 21.7 ng/mL

Q: And the Kp at 0.25 h [15]?
A: 4.17

Q: And the Kp at 0.5 h [16]?
A: 5.24

Q: And the Kp at 1 h [17]?
A: 6.33

Q: What about the Kp at 2 h [18] of the same compound?
A: 8.4

Q: What about the Kp at 4 h [19] of the same compound?
A: 8.47

Q: For `CCOC(=O)/C(=C\C1CCN(Cc2ccccc2)CC1)S(=O)(=O)c1ccc(OC)c(OC)c1`, which inhibition [2] is on record?
A: 12.4%

Q: With `COc1cc2cc(CC3CCN(Cc4ccccc4)CC3)sc2cc1OC` as the compound, how does the inhibition [2] read?
A: 46.6%

Q: For `COc1cc2c(cc1OC)S(=O)(=O)C(CC1(F)CCN(Cc3cccc(C)c3)CC1)C2` (stereo not drawn), which IC50 (Acetylcholinesterase [1]) is on record?
A: 3.8 nM

Q: For `COc1cc2c(cc1OC)S(=O)(=O)C(CC1CCN(Cc3c(F)cc(F)cc3F)CC1)C2` (stereo not drawn), which IC50 (Acetylcholinesterase [1]) is on record?
A: 128 nM
